Data taken from PubChem BioAssay AID248 (DTP/NCI, 2004).
Several values for one entry are separate records, joined by “and”; a condition that tells them apart may be missing. Equal values may be shown once. Toxic doses and inconclusive results are not listed. Cut-off read from the data, not from the text of the source: active = T/C of 150% or more; inactive = T/C below 125%. Square brackets hold non-standard residues; d marks the D form. Peptide text beside a SMILES is read from it. ξ: configuration not given here. ξK = NCCCCC(N)C(=O)O

Test system: L1210 leukemia ip in BDF1 mice, survival T/C
Assay: NCI In Vivo Anticancer Drug Screen. Data for tumor model L1210 Leukemia (intraperitoneal) in B6D2F1 (BDF1) mice
Conditions: endpoint: mean survival time, higher = longer survival
In short: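 Mice bearing the transplanted tumor received compound or vehicle. Survival of the treated group was divided by that of the vehicle-treated control group to give the ratio.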

[1] = dose: 50.0 mg/kg/injection, schedule: Q01DX009 (ip), vehicle: saline with Tween-80
[2] = dose: 100.0 mg/kg/injection, schedule: Q01DX009 (ip), vehicle: saline with Tween-80
[3] = dose: 100.0 mg/kg/injection, schedule: Q04DX003 (ip), vehicle: saline with Tween-80
[4] = dose: 200.0 mg/kg/injection, schedule: Q04DX003 (ip), vehicle: saline with Tween-80
[5] = dose: 100.0 mg/kg/injection, schedule: Q01DX009 (ip), vehicle: Klucel (hydroxypropylcellulose) (HPC)
[6] = dose: 200.0 mg/kg/injection, schedule: Q01DX009 (ip), vehicle: Klucel (hydroxypropylcellulose) (HPC)
[7] = dose: 400.0 mg/kg/injection, schedule: Q01DX009 (ip), vehicle: Klucel (hydroxypropylcellulose) (HPC)
[8] = dose: 100.0 mg/kg/injection, schedule: Q01DX001 (ip), vehicle: saline
[9] = dose: 200.0 mg/kg/injection, schedule: Q01DX001 (ip), vehicle: saline
[10] = dose: 400.0 mg/kg/injection, schedule: Q01DX001 (ip), vehicle: saline
[11] = dose: 200.0 mg/kg/injection, schedule: Q01DX009 (ip), vehicle: saline with Tween-80
[12] = dose: 400.0 mg/kg/injection, schedule: Q04DX003 (ip), vehicle: saline with Tween-80
[13] = dose: 100.0 mg/kg/injection, schedule: Q04DX003 (ip), vehicle: Klucel (hydroxypropylcellulose) (HPC)
[14] = dose: 200.0 mg/kg/injection, schedule: Q04DX003 (ip), vehicle: Klucel (hydroxypropylcellulose) (HPC)
[15] = dose: 400.0 mg/kg/injection, schedule: Q04DX003 (ip), vehicle: Klucel (hydroxypropylcellulose) (HPC)

Measured: T/C

c1ccc(C(Nc2ccnc3nc[nH]c23)c2ccccc2)cc1
inactive: dose: 25.0 mg/kg/injection, schedule: Q01DX001 (ip), vehicle: saline with Tween-80 107 % of control | dose: 50.0 mg/kg/injection, schedule: Q01DX001 (ip), vehicle: saline with Tween-80 102 % of control | [1] 96 % of control | dose: 50.0 mg/kg/injection, schedule: Q04DX003 (ip), vehicle: saline with Tween-80 95 % of control | dose: 75.0 mg/kg/injection, schedule: Q01DX001 (ip), vehicle: saline with Tween-80 101 % of control | dose: 100.0 mg/kg/injection, schedule: Q01DX001 (ip), vehicle: saline with Tween-80 94 % of control | [2] 107 % of control | [3] 91 % of control | dose: 200.0 mg/kg/injection, schedule: Q01DX001 (ip), vehicle: saline with Tween-80 93 % of control | [4] 92 % of control

O=C1N2CCOC2=NC1(c1ccccc1)c1ccccc1
inactive: dose: 50.0 mg/kg/injection, schedule: Q01DX009 (ip), vehicle: saline 111 % of control | dose: 100.0 mg/kg/injection, schedule: Q04DX003 (ip), vehicle: saline 94 % of control | dose: 200.0 mg/kg/injection, schedule: Q04DX003 (ip), vehicle: saline 103 % of control

CCCC#CC(=O)OCCCC
inactive: dose: 100.0 mg/kg/injection, schedule: Q04DX002 (ip), vehicle: saline with Tween-80 93 % of control | dose: 200.0 mg/kg/injection, schedule: Q04DX002 (ip), vehicle: saline with Tween-80 90 % of control | dose: 400.0 mg/kg/injection, schedule: Q04DX002 (ip), vehicle: saline with Tween-80 90 % of control

O=c1[nH]c2cc3[nH]c(=O)c(=O)c3cc2c1=O
inactive: [5] 102 % of control | [6] 100 % of control | [7] 100 % of control

CCOC(=O)C(CCCOC(=O)c1cc([N+](=O)[O-])cc([N+](=O)[O-])c1)C(=O)OCC
inactive: [8] 94 % of control | dose: 100.0 mg/kg/injection, schedule: Q01DX009 (ip), vehicle: saline 101 % of control | [9] 98 % of control | dose: 200.0 mg/kg/injection, schedule: Q01DX009 (ip), vehicle: saline 101 % of control | [10] 91 % of control | dose: 400.0 mg/kg/injection, schedule: Q01DX009 (ip), vehicle: saline 95 % of control

O=[N+]([O-])c1ccc(S(=O)(=O)OCC2CO2)cc1 (configuration not stated)
inactive: dose: 100.0 mg/kg/injection, schedule: Q01DX008 (ip), vehicle: Klucel (hydroxypropylcellulose) (HPC) 108 % of control | dose: 200.0 mg/kg/injection, schedule: Q01DX008 (ip), vehicle: Klucel (hydroxypropylcellulose) (HPC) 95 % of control | dose: 400.0 mg/kg/injection, schedule: Q01DX008 (ip), vehicle: Klucel (hydroxypropylcellulose) (HPC) 89 % of control

Cc1no[n+]([O-])c1[N+](=O)[O-]
inactive: dose: 5.0 mg/kg/injection, schedule: Q01DX009 (ip), vehicle: saline 100 % of control | dose: 10.0 mg/kg/injection, schedule: Q01DX009 (ip), vehicle: saline 101 % of control | dose: 20.0 mg/kg/injection, schedule: Q01DX009 (ip), vehicle: saline 102 % of control

NCCCCC(NC(=O)CN)C(=O)O (configuration not stated) (H-Gly-[ξK]-OH)
inactive: [8] 101 % of control | [9] 103 % of control | [10] 95 % of control

CC(=O)OCC1OC(S[As](C)SC2OC(COC(C)=O)C(OC(C)=O)C(OC(C)=O)C2OC(C)=O)C(OC(C)=O)C(OC(C)=O)C1OC(C)=O (configuration not stated)
inactive: dose: 6.25 mg/kg/injection, schedule: Q01DX009 (ip), vehicle: saline with Tween-80 101 % of control | dose: 12.5 mg/kg/injection, schedule: Q01DX009 (ip), vehicle: saline with Tween-80 116 % of control | dose: 25.0 mg/kg/injection, schedule: Q01DX009 (ip), vehicle: saline with Tween-80 116 % of control

COC(=O)Nc1cccc(OC(=O)NCC(C)C)c1
inactive: [2] 87 % of control | [11] 91 % of control | dose: 400.0 mg/kg/injection, schedule: Q01DX009 (ip), vehicle: saline with Tween-80 96 % of control

Clc1cc2nc3[nH]c4ccccc4c3nc2cc1Cl
inactive: [8] 97 % of control

CCN(CC)CCC(CNc1c(C)cnc2cc(Cl)ccc12)c1ccc(Cl)cc1 (configuration not stated)
inactive: [3] 100 % of control | [4] 100 % of control | [12] 94 % of control

Cc1c(C2=NCC(C)S2)ccc(O)c1N (configuration not stated)
inactive: dose: 62.5 mg/kg/injection, schedule: Q04DX002 (ip), vehicle: saline with Tween-80 93 % of control | dose: 125.0 mg/kg/injection, schedule: Q04DX002 (ip), vehicle: saline with Tween-80 90 % of control | dose: 250.0 mg/kg/injection, schedule: Q04DX002 (ip), vehicle: saline with Tween-80 93 % of control

O=c1[nH][nH]c(=O)c2ccccc12
inactive: dose: 50.0 mg/kg/injection, schedule: Q01DX001 (ip), vehicle: other 103 % of control | dose: 100.0 mg/kg/injection, schedule: Q01DX001 (ip), vehicle: other 103 % of control | [5] 111 % of control and 116 % of control | [13] 108 % of control | dose: 200.0 mg/kg/injection, schedule: Q01DX001 (ip), vehicle: other 100 % of control | [6] 106 % of control and 105 % of control | [14] 110 % of control | dose: 400.0 mg/kg/injection, schedule: Q01DX001 (ip), vehicle: other 103 % of control | [7] 100 % of control | [15] 104 % of control

COc1cc(C)ccc1Cl
inactive: [1] 107 % of control | [2] 113 % of control | [11] 110 % of control

CCOC(=O)c1ccc(NP(=O)(Nc2ccc(C(=O)OCC)cc2)c2ccc([N+](=O)[O-])cc2)cc1
inactive: dose: 100.0 mg/kg/injection, schedule: Q04DX003 (ip), vehicle: acetone 87 % of control | dose: 200.0 mg/kg/injection, schedule: Q04DX003 (ip), vehicle: acetone 95 % of control | dose: 400.0 mg/kg/injection, schedule: Q04DX003 (ip), vehicle: acetone 95 % of control

Cc1cc(Cl)ccc1NC(=O)c1ccccc1
inactive: [5] 98 % of control | [13] 103 % of control | [6] 105 % of control | [14] 92 % of control | [7] 96 % of control | [15] 97 % of control

COc1cc(Oc2cc(OC)c(OC)c(OC)c2)cc(OC)c1OC
inactive: [3] 97 % of control | [4] 101 % of control | [12] 97 % of control

COc1cc(C(=O)N2CCN(Cc3ccccc3)CC2)cc(OC)c1OC
inactive: [13] 93 % of control | [14] 107 % of control | [15] 93 % of control

CC12CCC3c4ccc([O-])c([N+]#N)c4CCC3C1CCC2=O (configuration not stated)
inactive: dose: 25.0 mg/kg/injection, schedule: Q01DX009 (ip), vehicle: Klucel (hydroxypropylcellulose) (HPC) 103 % of control | dose: 50.0 mg/kg/injection, schedule: Q01DX009 (ip), vehicle: Klucel (hydroxypropylcellulose) (HPC) 87 % of control

COC(=O)c1cccn1C(=O)c1ccccc1[N+](=O)[O-]
inactive: dose: 50.0 mg/kg/injection, schedule: Q04DX002 (ip), vehicle: other 105 % of control | dose: 100.0 mg/kg/injection, schedule: Q04DX002 (ip), vehicle: other 97 % of control | dose: 200.0 mg/kg/injection, schedule: Q04DX002 (ip), vehicle: other 94 % of control

CCOC(=O)/C=C/C(=O)O.[Cu+2]
inactive: dose: 3.12 mg/kg/injection, schedule: Q04DX003 (ip), vehicle: saline 94 % of control | dose: 6.25 mg/kg/injection, schedule: Q04DX003 (ip), vehicle: saline 89 % of control and 91 % of control
